Experimental data reported in patent US20240002428A1, “STORAGE STABLE CAGED HAPTENS” (VENTANA MEDICAL SYSTEMS, INC., priority 2021, published 2024).

Assay: Hydrolytic stability study of caged haptens at elevated temperature (reverse phase HPLC)
Assay type: physicochemical
Details: 100 mM PBS (pH 7.2), 37° C. oven, after 50 days of storage
Protocol: To study the hydrolytic stability of caged hapten conjugates having any one of Formulas (IVA), (IVB), or (VA)-(VF) (see FIG. 9) model compounds were subjected to a stability study at elevated temperatures.
Model compounds tested were the NP hapten with two different caging groups along with caged DIG, as set forth below:
The samples of caged NP and caged DIG were stored in 100 mM PBS (pH 7.2) in a 37° C. oven. The buffer and pH were representative of storage conditions for an antibody conjugate. A temperature of 37° C. was chosen to stress the sample and accelerate hydrolytic events. Normal storage conditions or the antibody conjugate were believed to be about 4° C. Aliquots of the samples were removed at regular intervals and tested by reverse phase HPLC on a Waters XBridge column on a Waters Alliance e2695 running Empower 3 (Waters). Each sample HPLC trace was examined for evidence of decaging or other forms of decomposition. […] The caged DIG testing was monitored out to 120 days and <0.5% hydrolysis was still observed at this point.

| Structure (SMILES) | hydrolysis (caged hapten hydrolyzed to the native hapten, percentage of the original material) |
| --- | --- |
| COc1cc(Cn2nc(C(=O)NCCN)cc2[N+](=O)[O-])cc(OC)c1OP(=O)(O)O [generation 1 caged-NP] | ~15.5% |
| COc1cc(Cn2nc(C(=O)NCCN)cc2[N+](=O)[O-])cc(OC)c1OCOP(=O)(O)O [generation 2 caged-NP] | ~6% |
